# Reference: patent publication US4351948A, “Imidazole hydrazone derivatives” (priority 1980, dated 1982)
# Structures can show the parent of a compound that is named as a salt. Where two headings read alike, the source gives them in different places.
# What was measured:
# in vivo = conditions: male mice, 7 day; for LD12.5: p.o.
# [1] = tested on: platelet thromboxane generation; test: Inhibition of platelet thromboxane generation (TxB2, collagen-stimulated human platelet rich plasma); assay type: cell-based; conditions: 10 min, read-out: Activity IC50 (50% inhibition of TxB2 generation)
# Procedure: The compounds used according to the invention as anti-thrombotics were tested by the following method for their ability to inhibit platelet thromboxane generation.
# Human venous blood was collected from healthy male donors, who had denied any medication in the previous 14 days. Nine volumes of blood were mixed with one volume of 3.24% trisodium citrate. The citrated blood was centrifuged at 160 g for 10 mins. at 22° C. to obtain platelet rich plasma (PRP). The platelets were then counted on a Coulter counter, and the platelet count was adjusted to 200,000 per μl with plasma.
# The PRP was then dispensed as aliquots into micro-Eppendorf tubes, maintained at 37° C. in a dry bath. The compounds dissolved either in saline, ethanol, or DMSO were added in duplicate to the PRP aliquots to produce final concentrations of 0.3, 3 and 30 μg/ml. When ethanol and DMSO were used as the vehicle, triplicate controls containing the same percentage of vehicle as the test compounds were made. The final concentration or organic solvent was never more than 0.1%, which in previous experiments had no effect on TxB2 generation.
# Following a 10 min. incubation with test compounds or vehicle, collagen was added to produce a final concentration of 8 μg/ml. The tubes were then whirly-mixed for 15 seconds and replaced in the dry bath for a further 10 minutes, controls received saline instead of collagen. The reaction was then stopped by rapid centrifugation, 15,000 g for 3 mins. The plasma was removed and frozen at -29° C. until assayed.
# Briefly, 100 μl aliquots, in tricine buffered saline+0.8% gelatin (pH 8.0) of the following were incubated together for 1 hour at 37° C.: thromboxane Tx B2 (plasma extract, spiked plasma extract or standards 20 to 20,000 pg/ml), ^3 H--TxB2 (approximately 15,000 dpm) and anti-TxB2 antiserum (0.5 μg/100 μl). The free and protein bound ^3 H--TxB2 were separated by ammonium sulphate precipitation followed by centrifugation. 300 μl of the supernatant was added to an aqueous scintillation fluid, and the radioactivity present was counted in a liquid scintillation counter. The binding of ^3 H--TxB2 in the absence of added TxB2 was approximately 55%. The least amount of TxB2 to be detected accurately in the plasma was 0.08 ng/ml. Cross reactivity with other prostaglandins is less than 0.005% except PGD2 which is 1%.
# Thus plasma samples were assayed to give a rough approximation of TxB2 content. The plasma was then appropriately diluted and assayed in duplicate to give accurate values.
# The amount of TxB2 generated by the collagen was calculated by subtracting mean values obtained for the saline stimulated platelets from the mean values obtained from the collagen stimulated platelets. Then the amount of TxB2 generated in the presence of each concentration of compound was expressed as a % control and dose response curves were then constructed to determine the concentration of compound which produced a 50% inhibition.
# C. sporogenes ATCC 19404 = test: Antianaerobic activity, MIC by standard broth dilution method (Table II); assay type: cell-based; conditions: Clostridium sporogenes, ATCC19404, 24 h, read-out: Minimal Inhibitory Concentration (MIC)
# Procedure: (§1) The activity of the compounds identified in the Table II below was tested for antianaerobic activity against one strain of Bacteroides fragilis, one strain of Bacteroides uniformis, one strain of Clostridium sporogenes and one strain of Trichomonas vaginalis as the test organism. The methods used involved determining the minimum inhibitory concentration by the standard broth dilution method. The values for metronidazole (2-methyl-5-nitro-1H-imidazole-1-ethanol) are given above for reference purposes. For convenience the compounds are referred to by an internal reference number (an HC number) and this is correlated with the number of the Example wherein its production is described.
# B. fragilis ATCC 23745 = test: as above; assay type: cell-based; conditions: Bacteroides fragilis, ATCC23745, 24 h, read-out: Minimal Inhibitory Concentration (MIC)
# Procedure: as §1, with “The values for metronidazole (2-methyl-5-nitro-1H-imidazole-1-ethanol) are given above for reference purposes.” left out
# B. uniformis ATCC 8492 = test: as above; assay type: cell-based; conditions: Bacteroides uniformis, ATCC8492, 24 h, read-out: Minimal Inhibitory Concentration (MIC)
# Procedure: as §1, with “The values for metronidazole (2-methyl-5-nitro-1H-imidazole-1-ethanol) are given above for reference purposes.” left out
# T. vaginalis ATCC 30001 = test: as above; assay type: cell-based; conditions: Trichomonas vaginalis, ATCC30001, 24 h, read-out: Minimal Inhibitory Concentration (MIC)
# Procedure: as §1, with “The values for metronidazole (2-methyl-5-nitro-1H-imidazole-1-ethanol) are given above for reference purposes.” left out
# [2] = collagen 8 μg/ml, human PRP, 10 min. incubation, 37° C.
smiles,measurement,setting,value
Nc1nc(=O)[nH]cc1F [5-Fluorocytosine],LD50 at 168 h,"in vivo; mouse, in vivo, iv, read-out: LD50",500 mg/kg
same,LD12.5,in vivo,500 mg/kg
C[C@@H]1[C@H](O)[C@@H](C)/C=C/C=C/C=C/C=C/C=C/C=C/C=C/[C@H](O[C@@H]2O[C@H](C)[C@@H](O)[C@H](N)[C@@H]2O)C[C@@H]2O[C@](O)(C[C@@H](O)C[C@@H](O)[C@H](O)CC[C@@H](O)C[C@@H](O)CC(=O)O[C@H]1C)C[C@H](O)[C@H]2C(=O)O [Amphotericin B],LD12.5,in vivo,280 mg/kg
"Clc1ccc(C(Cn2ccnc2)=NNc2ccccc2)cc1 [HC 290, 1-(4-Chlorophenyl)-2-(1H-imidazol-1-yl)ethanone, phenylhydrazone, hydrochloride]",IC50,[1]; [2],4.9 µM
"O=[N+]([O-])c1ccc(NN=C(Cn2ccnc2)c2ccccc2Cl)c([N+](=O)[O-])c1 [HC 336, 1-(2-chlorophenyl)-2-(1H-imidazol-1-yl) ethanone, 2,4-dinitrophenylhydrazone, hydrochloride]",IC50,[1]; Homo sapiens,0.9 µM
"Clc1ccc(C(Cn2ccnc2)=NNc2cc(Cl)cc(Cl)c2)cc1 [HC 346, 1-(4-chlorophenyl)-2-(1H-imidazol-1-yl) ethanone, 3,5-dichlorophenylhydrazone]",IC50,[1]; [2],2.7 µM
"Clc1ccccc1C(Cn1ccnc1)=NNc1c(Cl)cccc1Cl [HC 365, 1-(2-chlorophenyl)-2-(1H-imidazol-1-yl)ethanone, 2,6-dichlorophenylhydrazone, hydrochloride]",IC50,[1]; [2],3.6 µM
"Clc1cccc(Cl)c1NN=C(Cn1ccnc1)c1ccccc1 [HC 368, 1-phenyl-2-(1H-imidazol-1-yl)ethanone, 2,6-dichlorophenylhydrazone, hydrochloride]",IC50,[1]; [2],0.8 µM
"Clc1ccc(C(Cn2ccnc2)=NNc2c(Cl)cccc2Cl)c(Cl)c1 [HC 377, 1-(2,4-dichlorophenyl)-2-(1H-imidazol-1-yl)ethanone, 2,6-dichlorophenylhydrazone, hydrochloride]",IC50,[1]; [2],2.7 µM
"O=[N+]([O-])c1cccc(C(Cn2ccnc2)=NNc2c(Cl)cccc2Cl)c1 [HC 402, 1-(3-nitrophenyl)-2-(1H-imidazol-1-yl)ethanone, 2,6-dichlorophenylhydrazone, hydrochloride]",IC50,[1]; Homo sapiens,0.7 µM
"N#Cc1ccc(C(Cn2ccnc2)=NNc2c(Cl)cccc2Cl)cc1 [HC 416, 1-(4-cyanophenyl)-2-(1H-imidazol-1-yl)ethanone, 2,6-dichlorophenylhydrazone, hydrochloride]",IC50,[1]; [2],13.8 µM
"FC(F)(F)c1ccccc1C(Cn1ccnc1)=NNc1c(Cl)cccc1Cl [HC 418, 1-(2-trifluoromethylphenyl)-2-(1H-imidazol-1-yl)ethanone, 2,6-dichlorophenylhydrazone, hydrochloride]",IC50,[1]; [2],20.9 µM
"Fc1ccccc1C(Cn1ccnc1)=NNc1ccc(Cl)cc1Cl [HC 426, 1-(2-fluorophenyl)-2-(1H-imidazol-1-yl)ethanone, 2,4-dichlorophenylhydrazone, hydrochloride]",IC50,[1]; [2],5.5 µM
"Clc1ccc(/C(Cn2ccnc2)=N\Nc2ccccc2Cl)cc1 [HC 500, (E)-1-(4-chlorophenyl)-2-(1H-imidazol-1-yl)ethanone, 2-chlorophenylhydrazone, hydrochloride]",IC50,[1]; [2],> 80 µM
"Cl.FC(F)(F)c1ccc(C(Cn2ccnc2)=NNc2c(Cl)cc(Cl)cc2Cl)cc1 [HC-482, 1-(4-trifluoromethylphenyl)-2-(1H-imidazol-1-yl)ethanone, 2,4,6-trichlorophenylhydrazone, hydrochloride]",MIC,C. sporogenes ATCC 19404; Test 1,5 µg/mL
same,MIC,C. sporogenes ATCC 19404; Test 2,5 µg/mL
same,MIC,C. sporogenes ATCC 19404; Test 3,5 µg/mL
same,MIC,B. fragilis ATCC 23745; Test 1,5 µg/mL
same,MIC,B. fragilis ATCC 23745; Test 2,5 µg/mL
same,MIC,B. fragilis ATCC 23745; Test 3,5 µg/mL
same,MIC,B. uniformis ATCC 8492; Test 1,2.5 µg/mL
same,MIC,B. uniformis ATCC 8492; Test 2,2.5 µg/mL
same,MIC,B. uniformis ATCC 8492; Test 3,2.5 µg/mL
same,MIC,T. vaginalis ATCC 30001; Test 1,25 µg/mL
same,MIC,T. vaginalis ATCC 30001; Test 2,25 µg/mL
same,MIC,T. vaginalis ATCC 30001; Test 3,25 µg/mL
"Cl.Clc1ccc(C(Cn2ccnc2)=NNc2ccccc2Br)cc1 [HC-486, 1-(4-chlorophenyl)-2-(1H-imidazol-1-yl)ethanone, 2-bromophenylhydrazone, hydrochloride]",MIC,C. sporogenes ATCC 19404; Test 1,2.5 µg/mL
same,MIC,C. sporogenes ATCC 19404; Test 2,5 µg/mL
same,MIC,C. sporogenes ATCC 19404; Test 3,5 µg/mL
same,MIC,B. fragilis ATCC 23745; Test 1,5 µg/mL
same,MIC,B. fragilis ATCC 23745; Test 2,5 µg/mL
same,MIC,B. fragilis ATCC 23745; Test 3,5 µg/mL
same,MIC,B. uniformis ATCC 8492; Test 1,2.5 µg/mL
same,MIC,B. uniformis ATCC 8492; Test 2,2.5 µg/mL
same,MIC,B. uniformis ATCC 8492; Test 3,5 µg/mL
same,MIC,T. vaginalis ATCC 30001; Test 1,50 µg/mL
same,MIC,T. vaginalis ATCC 30001; Test 2,50 µg/mL
same,MIC,T. vaginalis ATCC 30001; Test 3,75 µg/mL
"Cl.Clc1cc(Cl)c(NN=C(Cn2ccnc2)c2ccccc2Cl)c(Cl)c1 [HC-523, 1-(2-chlorophenyl)-2-(1H-imidazol-1-yl)ethanone, 2,4,6-trichlorophenylhydrazone, hydrochloride]",MIC,C. sporogenes ATCC 19404; Test 1,2.5 µg/mL
same,MIC,C. sporogenes ATCC 19404; Test 2,2.5 µg/mL
same,MIC,C. sporogenes ATCC 19404; Test 3,5 µg/mL
same,MIC,B. fragilis ATCC 23745; Test 1,7.5 µg/mL
same,MIC,B. fragilis ATCC 23745; Test 2,5 µg/mL
same,MIC,B. fragilis ATCC 23745; Test 3,7.5 µg/mL
same,MIC,B. uniformis ATCC 8492; Test 1,5 µg/mL
same,MIC,B. uniformis ATCC 8492; Test 2,2.5 µg/mL
same,MIC,B. uniformis ATCC 8492; Test 3,5 µg/mL
same,MIC,T. vaginalis ATCC 30001; Test 1,50 µg/mL
same,MIC,T. vaginalis ATCC 30001; Test 2,50 µg/mL
same,MIC,T. vaginalis ATCC 30001; Test 3,50 µg/mL
"Clc1ccc(NN=C(Cn2ccnc2)c2cc(Cl)ccc2Cl)c(Cl)c1 [HC-525, 1-(2,5-dichlorophenyl)-2-(1H-imidazol-1-yl) ethanone, 2,4-dichlorophenylhydrazone, hydrochloride]",MIC,C. sporogenes ATCC 19404; Test 1,2.5 µg/mL
same,MIC,C. sporogenes ATCC 19404; Test 2,2.5 µg/mL
same,MIC,C. sporogenes ATCC 19404; Test 3,2.5 µg/mL
same,MIC,B. fragilis ATCC 23745; Test 1,2.5 µg/mL
same,MIC,B. fragilis ATCC 23745; Test 2,2.5 µg/mL
same,MIC,B. fragilis ATCC 23745; Test 3,2.5 µg/mL
same,MIC,B. uniformis ATCC 8492; Test 1,2.5 µg/mL
same,MIC,B. uniformis ATCC 8492; Test 2,2.5 µg/mL
same,MIC,B. uniformis ATCC 8492; Test 3,2.5 µg/mL
same,MIC,T. vaginalis ATCC 30001; Test 1,50 µg/mL
same,MIC,T. vaginalis ATCC 30001; Test 2,50 µg/mL
same,MIC,T. vaginalis ATCC 30001; Test 3,50 µg/mL
"CC(C(=NNc1c(Cl)cc(Cl)cc1Cl)c1ccc(Cl)cc1)n1ccnc1 (centres unmarked) [HC-561, 1-(4-chlorophenyl)-2-(1H-imidazol-1-yl)propanone, 2,4,6-trichlorophenylhydrazone, hydrochloride]",MIC,C. sporogenes ATCC 19404; Test 1,1 µg/mL
same,MIC,C. sporogenes ATCC 19404; Test 2,1 µg/mL
same,MIC,C. sporogenes ATCC 19404; Test 3,1 µg/mL
same,MIC,B. fragilis ATCC 23745; Test 1,1 µg/mL
same,MIC,B. fragilis ATCC 23745; Test 2,2.5 µg/mL
same,MIC,B. fragilis ATCC 23745; Test 3,5 µg/mL
same,MIC,B. uniformis ATCC 8492; Test 1,5 µg/mL
same,MIC,B. uniformis ATCC 8492; Test 2,7.5 µg/mL
same,MIC,B. uniformis ATCC 8492; Test 3,7.5 µg/mL
same,MIC,T. vaginalis ATCC 30001; Test 1,> 100 µg/mL
same,MIC,T. vaginalis ATCC 30001; Test 2,> 100 µg/mL
same,MIC,T. vaginalis ATCC 30001; Test 3,> 100 µg/mL
